For 16 molecules, DC50 results are on record in patent US20260184710A1, “CASITAS B-LINEAGE LYMPHOMA PROTOONCOGENE B (CBL-B) DEGRADING COMPOUNDS AND ASSOCIATED METHODS OF USE” (Arvinas Operations, Inc., priority 2022, published 2026).

T1 sequence (Q13191 whole entry): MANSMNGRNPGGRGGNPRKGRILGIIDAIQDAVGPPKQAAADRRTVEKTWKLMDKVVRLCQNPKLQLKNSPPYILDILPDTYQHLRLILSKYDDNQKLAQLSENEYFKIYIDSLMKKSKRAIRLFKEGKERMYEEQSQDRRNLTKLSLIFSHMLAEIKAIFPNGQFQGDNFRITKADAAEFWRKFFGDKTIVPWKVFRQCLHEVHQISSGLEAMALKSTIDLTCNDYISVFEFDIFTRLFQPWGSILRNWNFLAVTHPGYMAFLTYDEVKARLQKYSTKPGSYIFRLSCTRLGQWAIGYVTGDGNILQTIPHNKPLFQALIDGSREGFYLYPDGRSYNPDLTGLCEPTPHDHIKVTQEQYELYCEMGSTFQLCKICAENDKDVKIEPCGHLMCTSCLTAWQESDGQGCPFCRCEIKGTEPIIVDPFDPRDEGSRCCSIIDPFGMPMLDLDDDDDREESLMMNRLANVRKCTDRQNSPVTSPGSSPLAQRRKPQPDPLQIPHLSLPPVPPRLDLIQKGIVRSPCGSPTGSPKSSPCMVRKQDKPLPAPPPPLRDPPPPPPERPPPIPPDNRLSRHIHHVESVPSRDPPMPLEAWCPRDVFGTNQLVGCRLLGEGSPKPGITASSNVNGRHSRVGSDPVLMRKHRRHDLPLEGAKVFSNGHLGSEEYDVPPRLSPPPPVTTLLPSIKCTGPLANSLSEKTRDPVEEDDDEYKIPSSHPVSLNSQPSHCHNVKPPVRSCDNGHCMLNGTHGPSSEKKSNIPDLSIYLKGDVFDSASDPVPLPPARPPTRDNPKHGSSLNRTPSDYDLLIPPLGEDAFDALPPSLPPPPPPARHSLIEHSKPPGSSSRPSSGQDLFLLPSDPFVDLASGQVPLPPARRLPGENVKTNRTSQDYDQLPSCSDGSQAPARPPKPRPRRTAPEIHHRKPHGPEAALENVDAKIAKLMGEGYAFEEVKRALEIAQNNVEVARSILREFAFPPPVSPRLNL

The experiment concerns the target T1, Cbl-b (Homo sapiens, UniProt Q13191).
T1 construct: Cbl-b-HiBit KI Jurkat Cells were purchased from Promega; host or cells: Cbl-b-HiBiT knock-in Jurkat cells
Description: Cbl-b Degradation Method B (Nano-Glo HiBiT lytic detection). The class given is cell-based. As to conditions: Cbl-b-HiBit KI Jurkat Cells, incubated at least 6-24 hours; half maximal degradation; read-out: Cbl-b Degredation Method B IC50. The gist of the method: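 An 11-point, 3-fold compound dilution was applied for 6-24 hours to Jurkat cells carrying HiBiT-tagged endogenous Cbl-b. Lytic HiBiT luminescence quantified residual protein. Outputs are DC50 and Dmax relative to DMSO control.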
Regarding `COc1cc(N2CCN(Cc3cc4c(c(C(F)(F)F)c3)CN(c3cccc(C5(Cc6nncn6C)COC5)c3)C4=O)CC2)cc2c1C(=O)N(C1CCC(=O)NC1=O)C2=O` (stereo not shown) [Example 52, 2-(2,6-dioxopiperidin-3-yl)-4-methoxy-6-(4-{[2-(3-{3-[(4-methyl-4H-1,2,4-triazol-3-yl)methyl]oxetan-3-yl}phenyl)-3-oxo-7-(trifluoromethyl)-2,3-dihydro-1H-isoindol-5-yl]methyl}piperazin-1-yl)-2,3-dihydro-1H-isoindole-1,3-dione], the DC50 is more than 500 nM.

For `COc1ccc(C(=O)N2CCC(CN3CCN(Cc4cc5c(c(C(F)(F)F)c4)CN(c4cccc(C6(Cc7nncn7C)COC6)c4)C5=O)CC3)CC2)cc1N1CCC(=O)NC1=O` [Example 53, 1-(2-methoxy-5-{4-[(4-{[2-(3-{3-[(4-methyl-4H-1,2,4-triazol-3-yl)methyl]oxetan-3-yl}phenyl)-3-oxo-7-(trifluoromethyl)-2,3-dihydro-1H-isoindol-5-yl]methyl}piperazin-1-yl)methyl]piperidine-1-carbonyl}phenyl)-1,3-diazinane-2,4-dione], the DC50 is more than 500 nM.

`Cn1cnnc1CC1(c2cccc(N3Cc4c(cc(CN5CCN(CC6CCN(c7ccc(F)c(C(=O)NC8CCC(=O)NC8=O)c7)CC6)CC5)cc4C(F)(F)F)C3=O)c2)COC1` (stereo not shown) [Example 54, N-(2,6-dioxopiperidin-3-yl)-2-fluoro-5-{4-[(4-{[2-(3-{3-[(4-methyl-4H-1,2,4-triazol-3-yl)methyl]oxetan-3-yl}phenyl)-3-oxo-7-(trifluoromethyl)-2,3-dihydro-1H-isoindol-5-yl]methyl}piperazin-1-yl)methyl]piperidin-1-yl}benzamide]: the DC50 is more than 500 nM.

For the molecule `Cn1cnnc1CC1(c2cccc(N3Cc4c(cc(CN5CCC(Cn6cccc(CN7CCC(=O)NC7=O)c6=O)CC5)cc4C(F)(F)F)C3=O)c2)COC1` [Example 55, 1-({1-[(1-{[2-(3-{3-[(4-methyl-4H-1,2,4-triazol-3-yl)methyl]oxetan-3-yl}phenyl)-3-oxo-7-(trifluoromethyl)-2,3-dihydro-1H-isoindol-5-yl]methyl}piperidin-4-yl)methyl]-2-oxo-1,2-dihydropyridin-3-yl}methyl)-1,3-diazinane-2,4-dione], the DC50 is more than 500 nM.

`COc1ccc(N2CCC(CN3CCN(Cc4cc5c(c(C(F)(F)F)c4)CN(c4cccc(C6(Cc7nncn7C)COC6)c4)C5=O)CC3)CC2)cc1C(=O)NC1CCC(=O)NC1=O` (stereo not shown) [Example 56, N-(2,6-dioxopiperidin-3-yl)-2-methoxy-5-{4-[(4-{[2-(3-{3-[(4-methyl-4H-1,2,4-triazol-3-yl)methyl]oxetan-3-yl}phenyl)-3-oxo-7-(trifluoromethyl)-2,3-dihydro-1H-isoindol-5-yl]methyl}piperazin-1-yl)methyl]piperidin-1-yl}benzamide]: the DC50 was more than 500 nM.

Take `Cn1cnnc1CC1(c2cccc(N3Cc4c(cc(CN5CCN(CC6CCN(c7ccc(N8CCC(=O)NC8=O)c(F)c7)CC6)CC5)cc4C(F)(F)F)C3=O)c2)COC1` [Example 57, 1-(2-fluoro-4-{4-[(4-{[2-(3-{3-[(4-methyl-4H-1,2,4-triazol-3-yl)methyl]oxetan-3-yl}phenyl)-3-oxo-7-(trifluoromethyl)-2,3-dihydro-1H-isoindol-5-yl]methyl}piperazin-1-yl)methyl]piperidin-1-yl}phenyl)-1,3-diazinane-2,4-dione]: the DC50 was more than 500 nM.

`Cn1cnnc1CC1(c2cccc(N3Cc4c(cc(CN5CC(CC6CN(c7ccc8c(c7)C(=O)N(C7CCC(=O)NC7=O)C8=O)C6)C5)cc4C(F)(F)F)C3=O)c2)COC1` (stereo not shown) [Example 58, 2-(2,6-dioxopiperidin-3-yl)-5-{3-[(1-{[2-(3-{3-[(4-methyl-4H-1,2,4-triazol-3-yl)methyl]oxetan-3-yl}phenyl)-3-oxo-7-(trifluoromethyl)-2,3-dihydro-1H-isoindol-5-yl]methyl}azetidin-3-yl)methyl]azetidin-1-yl}-2,3-dihydro-1H-isoindole-1,3-dione]: the DC50 was more than 500 nM.

Turning to `Cn1cnnc1CC1(c2cccc(N3Cc4c(cc(CN5CCC(C(C)(C)N6CCN(c7ccc8c(c7)C(=O)N(C7CCC(=O)NC7=O)C8=O)CC6)CC5)cc4C(F)(F)F)C3=O)c2)COC1` (stereo not shown) [Example 59, 2-(2,6-dioxopiperidin-3-yl)-5-{4-[2-(1-{[2-(3-{3-[(4-methyl-4H-1,2,4-triazol-3-yl)methyl]oxetan-3-yl}phenyl)-3-oxo-7-(trifluoromethyl)-2,3-dihydro-1H-isoindol-5-yl]methyl}piperidin-4-yl)propan-2-yl]piperazin-1-yl}-2,3-dihydro-1H-isoindole-1,3-dione], the DC50 was more than 500 nM.

For the molecule `Cn1cnnc1CC1(c2cccc(N3Cc4c(cc(CN5CCC(CN(C)[C@H]6C[C@H](Oc7ccc8c(c7)C(=O)N(C7CCC(=O)NC7=O)C8=O)C6)CC5)cc4C(F)(F)F)C3=O)c2)COC1` (stereo partly shown) [Example 60, 2-(2,6-dioxopiperidin-3-yl)-5-[(1r,3r)-3-{methyl[(1-{[2-(3-{3-[(4-methyl-4H-1,2,4-triazol-3-yl)methyl]oxetan-3-yl}phenyl)-3-oxo-7-(trifluoromethyl)-2,3-dihydro-1H-isoindol-5-yl]methyl}piperidin-4-yl)methyl]amino}cyclobutoxy]-2,3-dihydro-1H-isoindole-1,3-dione], the DC50 was more than 500 nM.

Take `Cn1cnnc1CC1(c2cccc(N3Cc4c(cc(CN5CCC(CCCN6CCN(c7ccc8c(c7)C(=O)N(C7CCC(=O)NC7=O)C8=O)CC6)CC5)cc4C(F)(F)F)C3=O)c2)COC1` (stereo not shown) [Example 61, 2-(2,6-dioxopiperidin-3-yl)-5-{4-[3-(1-{[2-(3-{3-[(4-methyl-4H-1,2,4-triazol-3-yl)methyl]oxetan-3-yl}phenyl)-3-oxo-7-(trifluoromethyl)-2,3-dihydro-1H-isoindol-5-yl]methyl}piperidin-4-yl)propyl]piperazin-1-yl}-2,3-dihydro-1H-isoindole-1,3-dione]: the DC50 was more than 500 nM.

`Cn1cnnc1CC1(c2cccc(N3Cc4c(cc(CN5CCN(c6cc(N7CCN(c8ccc9c(c8)C(=O)N(C8CCC(=O)NC8=O)C9=O)CC7)ncn6)CC5)cc4C(F)(F)F)C3=O)c2)COC1` (stereo not shown) [Example 62, 2-(2,6-dioxopiperidin-3-yl)-5-{4-[6-(4-{[2-(3-{3-[(4-methyl-4H-1,2,4-triazol-3-yl)methyl]oxetan-3-yl}phenyl)-3-oxo-7-(trifluoromethyl)-2,3-dihydro-1H-isoindol-5-yl]methyl}piperazin-1-yl)pyrimidin-4-yl]piperazin-1-yl}-2,3-dihydro-1H-isoindole-1,3-dione]: the DC50 is more than 500 nM.

Consider `Cn1cnnc1CC1(c2cccc(N3Cc4c(cc(CN5CCN(CCN(C)[C@H]6C[C@H](Oc7ccc8c(c7)C(=O)N(C7CCC(=O)NC7=O)C8=O)C6)CC5)cc4C(F)(F)F)C3=O)c2)COC1` (stereo partly shown) [Example 63, 2-(2,6-dioxopiperidin-3-yl)-5-[(1r,3r)-3-{methyl[2-(4-{[2-(3-{3-[(4-methyl-4H-1,2,4-triazol-3-yl)methyl]oxetan-3-yl}phenyl)-3-oxo-7-(trifluoromethyl)-2,3-dihydro-1H-isoindol-5-yl]methyl}piperazin-1-yl)ethyl]amino}cyclobutoxy]-2,3-dihydro-1H-isoindole-1,3-dione], for which the DC50 is more than 500 nM.

For the molecule `Cn1cnnc1CC1(c2cccc(N3Cc4c(cc(CN5CC(C6CN(c7ccc(Oc8ccc9c(c8)C(=O)N(C8CCC(=O)NC8=O)C9=O)cc7)C6)C5)cc4C(F)(F)F)C3=O)c2)COC1` (stereo not shown) [Example 64, 2-(2,6-dioxopiperidin-3-yl)-5-[4-(1′-{[2-(3-{3-[(4-methyl-4H-1,2,4-triazol-3-yl)methyl]oxetan-3-yl}phenyl)-3-oxo-7-(trifluoromethyl)-2,3-dihydro-1H-isoindol-5-yl]methyl}-[3,3′-biazetidin]-1-yl)phenoxy]-2,3-dihydro-1H-isoindole-1,3-dione], the DC50 was more than 500 nM.

For `Cn1cnnc1CC1(c2cccc(N3Cc4c(cc(CN5CCC(CN6CCC7(CC6)CN(c6cccc8c6CN(C6CCC(=O)NC6=O)C8=O)C7)CC5)cc4C(F)(F)F)C3=O)c2)COC1` (stereo not shown) [Example 65, 3-(4-{7-[(1-{[2-(3-{3-[(4-methyl-4H-1,2,4-triazol-3-yl)methyl]oxetan-3-yl}phenyl)-3-oxo-7-(trifluoromethyl)-2,3-dihydro-1H-isoindol-5-yl]methyl}piperidin-4-yl)methyl]-2,7-diazaspiro[3.5]nonan-2-yl}-1-oxo-2,3-dihydro-1H-isoindol-2-yl)piperidine-2,6-dione], the DC50 is more than 500 nM.

Consider `Cn1cnnc1CC1(c2cccc(N3Cc4c(cc(CN5CCC(CN6CC7(CCN(c8ccc9c(c8)CN(C8CCC(=O)NC8=O)C9=O)CC7)C6)CC5)cc4C(F)(F)F)C3=O)c2)COC1` (stereo not shown) [Example 66, 3-(5-{2-[(1-{[2-(3-{3-[(4-methyl-4H-1,2,4-triazol-3-yl)methyl]oxetan-3-yl}phenyl)-3-oxo-7-(trifluoromethyl)-2,3-dihydro-1H-isoindol-5-yl]methyl}piperidin-4-yl)methyl]-2,7-diazaspiro[3.5]nonan-7-yl}-1-oxo-2,3-dihydro-1H-isoindol-2-yl)piperidine-2,6-dione], for which the DC50 is more than 500 nM.

On to `Cn1cnnc1CC1(c2cccc(N3Cc4c(cc(CN5CC(CN6CCN(C7CCN(c8ccc9c(c8)C(=O)N(C8CCC(=O)NC8=O)C9=O)CC7)CC6)C5)cc4C(F)(F)F)C3=O)c2)COC1` (stereo not shown) [Example 67, 2-(2,6-dioxopiperidin-3-yl)-5-(4-{4-[(1-{[2-(3-{3-[(4-methyl-4H-1,2,4-triazol-3-yl)methyl]oxetan-3-yl}phenyl)-3-oxo-7-(trifluoromethyl)-2,3-dihydro-1H-isoindol-5-yl]methyl}azetidin-3-yl)methyl]piperazin-1-yl}piperidin-1-yl)-2,3-dihydro-1H-isoindole-1,3-dione], for which the DC50 is more than 500 nM.
